Results on eight cell lines are retold here after the supplement of paper PMC10307832.

Common to all, as to test: relative viability (nuclei count vs DMSO), 5 days (fraction); higher = more cells survive
Compound in the test “Quizartinib + Alpelisib”: CC(C)(C)c1cc(NC(=O)Nc2ccc(-c3cn4c(n3)sc3cc(OCCN5CCOCC5)ccc34)cc2)no1 [Quizartinib] + Cc1nc(NC(=O)N2CCC[C@H]2C(N)=O)sc1-c1ccnc(C(C)(C)C(F)(F)F)c1 [Alpelisib] (partner 2 µM)
Summed up: (§1)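 Values are medians from duplicate plates. Each reflects relative viability, defined as the nuclei count of treated wells over that of vehicle wells. Lung cancer cell lines in 1536-well plates were pin-tool dosed one day after seeding with one drug alone or with a fixed anchor-drug dose plus five library-drug doses (not always all listed) in √10 steps, then fixed, stained and imaged at 4× after 5 days.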

Compound in the test “YM155 + Vorinostat”: COCC[n+]1c2c(n(Cc3cnccn3)c1C)C(=O)c1ccccc1C2=O [YM155] + O=C(CCCCCCC(=O)Nc1ccccc1)NO [Vorinostat] (partner 1 µM)
The essentials:
as §1

Compound in the test “Quizartinib + Phenformin”: CC(C)(C)c1cc(NC(=O)Nc2ccc(-c3cn4c(n3)sc3cc(OCCN5CCOCC5)ccc34)cc2)no1 [Quizartinib] + N=C(N)NC(=N)NCCc1ccccc1 [Phenformin] (partner 250 µM)
The essentials: as §1

Compound in the test “Quizartinib + Trametinib”: CC(C)(C)c1cc(NC(=O)Nc2ccc(-c3cn4c(n3)sc3cc(OCCN5CCOCC5)ccc34)cc2)no1 [Quizartinib] + CC(=O)Nc1cccc(-n2c(=O)n(C3CC3)c(=O)c3c(Nc4ccc(I)cc4F)n(C)c(=O)c(C)c32)c1 [Trametinib] (partner 0.02 µM)
The essentials: as §1

With HCC-44, the relative viability with Quizartinib + Alpelisib (first compound 0.001 µM) was found to be 0.798; in the test with Quizartinib + Alpelisib (first compound 0.003162 µM), 0.78; with Quizartinib + Alpelisib (first compound 0.01 µM), 0.864; in the test with Quizartinib + Alpelisib (first compound 0.03162 µM), 0.825; in the test with Quizartinib + Alpelisib (first compound 0.1 µM) it was 0.638; in the test with YM155 + Vorinostat (first compound 0.002 µM) it was 1.01. The relative viability came out at 1.11 in the test with YM155 + Vorinostat (first compound 0.006325 µM); 1.12 with YM155 + Vorinostat (first compound 0.02 µM); 1.1 with YM155 + Vorinostat (first compound 0.06325 µM); 0.203 with Quizartinib + Phenformin (first compound 0.001 µM); 0.323 with Quizartinib + Phenformin (first compound 0.003162 µM); 0.169 with Quizartinib + Phenformin (first compound 0.03162 µM). In addition, the relative viability in the test with Quizartinib + Phenformin (first compound 0.1 µM) amounted to 0.261; with Quizartinib + Trametinib (first compound 0.001 µM), 0.892; with Quizartinib + Trametinib (first compound 0.003162 µM) it was 1.05; in the test with Quizartinib + Trametinib (first compound 0.01 µM), 1.03; with Quizartinib + Trametinib (first compound 0.03162 µM), 1.05; with Quizartinib + Trametinib (first compound 0.1 µM), 1.03.

As to HCC-78, the relative viability was 0.343 with Quizartinib + Alpelisib (first compound 0.001 µM); 0.33 with Quizartinib + Alpelisib (first compound 0.003162 µM); 0.393 with Quizartinib + Alpelisib (first compound 0.01 µM); 0.315 with Quizartinib + Alpelisib (first compound 0.03162 µM); 0.342 in the test with Quizartinib + Alpelisib (first compound 0.1 µM); 0.469 with YM155 + Vorinostat (first compound 0.002 µM). In addition, the relative viability was determined as 0.458 with YM155 + Vorinostat (first compound 0.006325 µM); 0.429 in the test with YM155 + Vorinostat (first compound 0.02 µM); 0.472 with YM155 + Vorinostat (first compound 0.06325 µM); 0.687 with Quizartinib + Phenformin (first compound 0.001 µM); 0.832 with Quizartinib + Phenformin (first compound 0.003162 µM); 0.707 with Quizartinib + Phenformin (first compound 0.01 µM). Moreover, the relative viability in the test with Quizartinib + Phenformin (first compound 0.03162 µM) was 0.574; in the test with Quizartinib + Phenformin (first compound 0.1 µM) it was 0.73; in the test with Quizartinib + Trametinib (first compound 0.001 µM) it was 0.727; with Quizartinib + Trametinib (first compound 0.003162 µM), 0.662; with Quizartinib + Trametinib (first compound 0.01 µM), 0.848; in the test with Quizartinib + Trametinib (first compound 0.03162 µM), 0.593. For the same cell line, the relative viability with Quizartinib + Trametinib (first compound 0.1 µM) is 0.913.

Turning to HCC-366, the relative viability with Quizartinib + Alpelisib (first compound 0.001 µM) was found to be 0.348; in the test with Quizartinib + Alpelisib (first compound 0.003162 µM), 0.31; with Quizartinib + Alpelisib (first compound 0.01 µM), 0.448; in the test with Quizartinib + Alpelisib (first compound 0.03162 µM), 0.404; with Quizartinib + Alpelisib (first compound 0.1 µM) it was 0.358; with YM155 + Vorinostat (first compound 0.002 µM), 0.321. The relative viability with YM155 + Vorinostat (first compound 0.006325 µM) was 0.393; with YM155 + Vorinostat (first compound 0.02 µM), 0.469; with YM155 + Vorinostat (first compound 0.06325 µM), 0.279; with Quizartinib + Phenformin (first compound 0.001 µM), 0.615; with Quizartinib + Phenformin (first compound 0.003162 µM) it was 0.549; with Quizartinib + Phenformin (first compound 0.01 µM), 0.577. In addition, the relative viability was 0.601 with Quizartinib + Phenformin (first compound 0.03162 µM); 0.547 in the test with Quizartinib + Phenformin (first compound 0.1 µM); 0.314 in the test with Quizartinib + Trametinib (first compound 0.001 µM); 0.383 with Quizartinib + Trametinib (first compound 0.003162 µM); 0.294 in the test with Quizartinib + Trametinib (first compound 0.01 µM); 0.326 with Quizartinib + Trametinib (first compound 0.03162 µM). Moreover, the relative viability with Quizartinib + Trametinib (first compound 0.1 µM) came to 0.346.

As to HCC-827, the relative viability with Quizartinib + Alpelisib (first compound 0.001 µM) was 0.952; with Quizartinib + Alpelisib (first compound 0.003162 µM), 0.858; in the test with Quizartinib + Alpelisib (first compound 0.01 µM), 0.965; with Quizartinib + Alpelisib (first compound 0.03162 µM) it was 0.976; with Quizartinib + Alpelisib (first compound 0.1 µM), 0.987; with YM155 + Vorinostat (first compound 0.002 µM), 0.875. The relative viability turned out to be 0.961 with YM155 + Vorinostat (first compound 0.006325 µM); 0.835 with YM155 + Vorinostat (first compound 0.02 µM); 0.835 in the test with YM155 + Vorinostat (first compound 0.06325 µM); 0.372 with Quizartinib + Phenformin (first compound 0.001 µM); 0.385 with Quizartinib + Phenformin (first compound 0.003162 µM); 0.44 with Quizartinib + Phenformin (first compound 0.01 µM). Further, the relative viability with Quizartinib + Phenformin (first compound 0.03162 µM) was found to be 0.402; with Quizartinib + Phenformin (first compound 0.1 µM) it was 0.404; in the test with Quizartinib + Trametinib (first compound 0.001 µM), 0.535; in the test with Quizartinib + Trametinib (first compound 0.003162 µM), 0.531; in the test with Quizartinib + Trametinib (first compound 0.03162 µM), 0.509; with Quizartinib + Trametinib (first compound 0.1 µM) it was 0.572.

For the cell line HOP-62, the relative viability with Quizartinib + Alpelisib (first compound 0.001 µM) was found to be 0.75; in the test with Quizartinib + Alpelisib (first compound 0.003162 µM), 0.706; with Quizartinib + Alpelisib (first compound 0.01 µM), 1.19; in the test with Quizartinib + Alpelisib (first compound 0.03162 µM), 1.26; in the test with Quizartinib + Alpelisib (first compound 0.1 µM), 0.907; in the test with YM155 + Vorinostat (first compound 0.002 µM), 0.516. The relative viability stood at 0.595 with YM155 + Vorinostat (first compound 0.006325 µM); 0.727 in the test with YM155 + Vorinostat (first compound 0.02 µM); 0.577 with YM155 + Vorinostat (first compound 0.06325 µM); 0.624 with Quizartinib + Phenformin (first compound 0.001 µM); 0.625 with Quizartinib + Phenformin (first compound 0.003162 µM); 0.84 with Quizartinib + Phenformin (first compound 0.01 µM). In addition, the relative viability in the test with Quizartinib + Phenformin (first compound 0.03162 µM) amounted to 0.662; with Quizartinib + Phenformin (first compound 0.1 µM), 0.666; in the test with Quizartinib + Trametinib (first compound 0.001 µM), 0.33; with Quizartinib + Trametinib (first compound 0.003162 µM), 0.367; with Quizartinib + Trametinib (first compound 0.01 µM) it was 0.399; with Quizartinib + Trametinib (first compound 0.03162 µM), 0.383. Further, the relative viability with Quizartinib + Trametinib (first compound 0.1 µM) amounted to 0.304.

As to IA-LM, the relative viability with Quizartinib + Alpelisib (first compound 0.001 µM) worked out at 0.695; in the test with Quizartinib + Alpelisib (first compound 0.003162 µM) it was 0.761; with Quizartinib + Alpelisib (first compound 0.01 µM), 0.808; in the test with Quizartinib + Alpelisib (first compound 0.03162 µM), 0.789; with Quizartinib + Alpelisib (first compound 0.1 µM) it was 0.844; with YM155 + Vorinostat (first compound 0.002 µM), 0.863. Moreover, the relative viability in the test with YM155 + Vorinostat (first compound 0.006325 µM) is 0.932; with YM155 + Vorinostat (first compound 0.02 µM), 0.942; in the test with YM155 + Vorinostat (first compound 0.06325 µM), 0.97.

On to LC-2-ad, for which the relative viability in the test with Quizartinib + Alpelisib (first compound 0.001 µM) amounted to 0.775; with Quizartinib + Alpelisib (first compound 0.003162 µM) it was 0.837; with Quizartinib + Alpelisib (first compound 0.01 µM), 0.952; in the test with Quizartinib + Alpelisib (first compound 0.03162 µM), 0.9; with Quizartinib + Alpelisib (first compound 0.1 µM), 0.592; with YM155 + Vorinostat (first compound 0.002 µM), 0.682. Also, the relative viability in the test with YM155 + Vorinostat (first compound 0.006325 µM) came to 0.637; in the test with YM155 + Vorinostat (first compound 0.02 µM) it was 0.705; in the test with YM155 + Vorinostat (first compound 0.06325 µM), 0.65; in the test with Quizartinib + Phenformin (first compound 0.001 µM), 0.498; with Quizartinib + Phenformin (first compound 0.003162 µM), 0.639; in the test with Quizartinib + Phenformin (first compound 0.01 µM), 0.579. The relative viability stood at 0.502 with Quizartinib + Phenformin (first compound 0.1 µM); 0.809 with Quizartinib + Trametinib (first compound 0.001 µM); 0.92 with Quizartinib + Trametinib (first compound 0.003162 µM); 0.899 in the test with Quizartinib + Trametinib (first compound 0.01 µM); 0.883 in the test with Quizartinib + Trametinib (first compound 0.03162 µM); 0.624 in the test with Quizartinib + Trametinib (first compound 0.1 µM).

Turning to LCLC-97TM1, the relative viability with Quizartinib + Alpelisib (first compound 0.003162 µM) came out at 0.22; with Quizartinib + Alpelisib (first compound 0.01 µM), 0.267; in the test with Quizartinib + Alpelisib (first compound 0.03162 µM), 0.261; with Quizartinib + Alpelisib (first compound 0.1 µM) it was 0.252; in the test with YM155 + Vorinostat (first compound 0.006325 µM) it was 0.817; with YM155 + Vorinostat (first compound 0.02 µM), 0.753. The relative viability with YM155 + Vorinostat (first compound 0.06325 µM) was determined as 0.481; with Quizartinib + Phenformin (first compound 0.001 µM), 0.396; with Quizartinib + Phenformin (first compound 0.003162 µM) it was 0.379; in the test with Quizartinib + Phenformin (first compound 0.01 µM), 0.421; in the test with Quizartinib + Phenformin (first compound 0.03162 µM) it was 0.464; with Quizartinib + Phenformin (first compound 0.1 µM), 0.375. Moreover, the relative viability worked out at 0.158 in the test with Quizartinib + Trametinib (first compound 0.001 µM); 0.186 with Quizartinib + Trametinib (first compound 0.003162 µM); 0.191 with Quizartinib + Trametinib (first compound 0.01 µM); 0.216 in the test with Quizartinib + Trametinib (first compound 0.03162 µM); 0.184 with Quizartinib + Trametinib (first compound 0.1 µM).
